The values that follow come from US20100267952A1, “USE OF NOVEL COMPOUND HAVING AFFINITY FOR AMYLOID, AND PROCESS FOR PRODUCTION OF THE SAME” (NIHON MEDI-PHYSICS CO., LTD., priority 2007, published 2010).

In data set [1] the target is T1, amyloid (aggregated Aβ1-40) (Homo sapiens, UniProt P05067).
T1 construct: Aβ1-40 (Peptide Institute, INC.) was dissolved in phosphate buffer (pH 7.4); purchased Peptide Institute, INC
Nature of the data set: Measurement of affinity with amyloid: inhibition of [125I]3′-I-BTA-0 binding. The conditions noted are these: [125I]3′-I-BTA-0 400 pmol/L, amyloid 1 μmol/L, 22° C., 3 hours. How it is done: Affinity of the present compounds with amyloid was examined by the following in vitro binding tests.
(1) Aβ1-40 (Peptide Institute, INC.) was dissolved in phosphate buffer (pH 7.4) and shaken at 37° C. for 62-72 hours, to obtain a 1 mg/mL suspension of aggregated Aβ (hereinafter referred to as amyloid suspension in this Example).
(3) According to the method described in a literature (Wang, Y., et al., J. Labeled Compounds Radiopharmaceut. 44, 5239 (2001)), [^125I]2-(3′-iodo-4′-aminophenyl)benzothiazole (hereinafter referred to as […]) was prepared from a labeling precursor 2-(4′-aminophenyl)benzothiazole, and dissolved in ethanol.
(5) Samples in which [^125I]3′-I-BTA-0, each compound for evaluation and amyloid were dissolved in a 0.1% bovine serum albumin-containing phosphate buffer (pH 7.4) at final concentrations shown in Table 1-2 were prepared. The resulting samples were filled in each well (about 0.3 mL in volume) of a 96-well microplate.
(6) The microplate filled with the sample solutions was shaken at a given rate (400 rpm) at 22° C. for 3 hours. Then, each sample solution was filtered through a glass fiber filter (trade name: Mulutiscreen™-FC, manufactured by Millipore), to separate the [^125I]3′-I-BTA-0 attached to amyloid from the free [^125I]3′-I-BTA-0.
(7) The glass fiber filter used for the filtration of each sample solution was washed with a 0.1% bovine serum albumin-containing phosphate buffer (pH 7.4) (0.5 mL×5), and radioactivity of the glass fiber filter was measured with an autowell gamma system (manufactured by Aloka, Type: ARC-301B).
(8) Separately, a solution of containing 15 μmol/L of 6-Me-BTA-2, […] of [^125I]3′-I-BTA-0 and 1 μmol/L of Aβ1-40 were prepared and subjected to the same procedures as described above in (6) and (7) to measure a radioactivity level. The measured radioactivity level was defined as the background radioactivity level, and used in the calculation of the inhibition ratio (hereinafter referred to as BG).
(9) Using the radioactivity levels measured above in (7) and (8), the inhibition ratio was determined by the following formula (1-1).
A graph in which values converted by probit transformation from the obtained inhibition ratios were plotted relative to logarithms of concentrations of compounds for evaluation was prepared to obtain an approximate straight line by the least square method. Using the line, the concentration of each compound for evaluation was determined, at which the radioactivity level is half of the level of the sample free from each compound for evaluation, and was defined as a 50% inhibition concentration of each compound (hereinafter referred to as IC50% value). Using the value as an indicator, affinity of each compound for evaluation with amyloid (aggregated Aβ1-40) was evaluated.

For data set [2] the following is noted: [125I]-labeled, normal mice; cited from earlier work.
Data set [3] in a line: Transferability into brain and clearance. The settings on record: rats, intravenous injection. It counts as in vivo, male Wistar rats. The source says: Three animals were used for Experiment I-20 and Comparative Experiment I-9, and two animals were used for Experiment I-21 at the respective time points.
The nature of data set [4]: Partition coefficient based on the octanol extraction method. It counts as physicochemical. The settings on record: octanol / 10 mmol/L phosphate buffer (pH 7.4).
Description: After the mixture was centrifuged with a low-speed centrifuge (2000 rpm×60 min.), the octanol layer and the water layer were sampled each in an amount of 1 mL, and subjected to measurement of radioactivity count with an autowell gamma system (manufactured by Aloka, Type: ARC-301B). Using the obtained radioactivity count, log Poctanol was calculated in accordance with the equation (1-2).
Data set [5] relates to Salmonella typhimurium TA98. Nature of the data set: Reverse mutation test (Ames test), TA98. It counts as cell-based. The procedure:
(§1) In order to examine mutagenicity of Compound I-1, I-2, I-4 and I-5, reverse mutation test using Salmonella typhimurium TA98 and TA100 (hereinafter referred to as Ames test) was conducted.
(§2) The test was conducted without addition of S9mix and with addition of S9mix. Dimethylsulfoxide was used as a negative control. A positive control was 2-(2-furyl)-3-(5-nitro-2-furyl)acrylamide in case S9mix was not added, and 2-aminoanthracene in case S9mix was added.
(§3) The amount of each sample to be added to the test plate was 7 dosages (geometric ratio 4) with the maximum dose being 1250 μg/plate for Compounds I-1 and I-5, and 7 dosages (geometric ratio 3) with the maximum dose being 5000 μg/plate for Compounds I-2 and I-4. After a sample to be examined and a strain (TA98 or TA100), or a sample to be examined, S9mix and the strain were mixed together, the mixture was multilayered using soft agar on a medium of a test plate, and then incubated at 37° C. for 48 hours.

Data set [6] concerns Salmonella typhimurium TA100. Nature of the data set: Reverse mutation test (Ames test), TA100. It counts as cell-based. The procedure: as §1, §2, §3
Data set [7] deals with Salmonella typhimurium TA98 and TA100. Nature of the data set: Reverse mutation test (Ames test), overall judgment. It counts as cell-based. The settings on record: TA98 and TA100, with and without S9mix. How it is done: as §1, §2, §3
The numbers of reverse mutation colonies of the respective strains in the group treated with Compounds I-1, I-2, I-4 and I-5 were less than two times the number in the group treated with the negative control, regardless of addition of S9mix and the addition amount of a sample to be examined. From the aforementioned results, it is judged that Compounds I-1, I-2, I-4 and I-5 are negative in the Ames test and have no mutagenicity.
In general terms: The Ames test detects mutagens through reverse mutation in bacteria.

The target of data set [8] is T2, amyloid (aggregated Aβ1-40) injected into amygdaloid nucleus (Homo sapiens, UniProt P05067).
T2 construct: Aβ1-40 (Peptide Institute, INC.) was dissolved in phosphate buffer (pH 7.4); purchased Peptide Institute, INC
T2 sequence (P05067 672-711): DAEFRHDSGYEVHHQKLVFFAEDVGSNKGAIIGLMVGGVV
Briefly: Confirmation of imaging of amyloid in brain (autoradiogram of brain slice, Aβ1-40 injected rat). It counts as in vivo, male Wistar rat. The conditions noted are these: tail vein, 16 MBq equivalent, brain removed 60 minutes after injection.
Description: The following experiment was carried out in order to examine whether amyloid in brain can be imaged by the compound of the present invention.
(1) Aβ1-40 (manufactured by Peptide Institute, INC.) was dissolved in phosphate buffer (pH 7.4) and shaken at 37° C. for 72 hours, to obtain 1 mg/mL of a suspension of aggregated Aβ (hereinafter referred to as amyloid suspension in this Example).
(2) 25 μL (corresponding to 25 μg) of the amyloid suspension was injected into an amygdaloid nucleus on one side of a male Wistar rat (7-week old). As a control, 25 μL of a phosphate buffered physiological saline solution (pH 7.4) was injected into an amygdaloid nucleus on the other side of the rat. The rats were examined 1 day after the injection of the amyloid suspension and the phosphate buffered physiological saline solution (pH 7.4).
This solution was injected into the rat through the tail vein (dosage: 0.5 mL, dosed radioactivity: 16 MBq equivalent).
(4) Brain was removed 60 minutes after the injection to prepare a brain slice of 10 μm in thickness with a microtome (type: CM3050S, manufactured by LEICA). The brain slice was exposed to an imaging plate for 20 hours, and then image analysis was carried out by use of a Bio-imaging Analyzer (type: BAS-2500; manufactured by FUJIFILM Corporation).

Another data set concerns the target T3, amyloid (amylin) (Homo sapiens, UniProt P10997).
T3 construct: Amylin (human) (manufactured by Wako) was dissolved in phosphate buffer (pH 7.4); purchased Wako
T3 sequence (P10997 34-70 limits assumed): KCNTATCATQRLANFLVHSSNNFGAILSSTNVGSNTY
Nature of the data set: Inhibition of binding of Thioflavin T to amyloid derived from amylin. The settings on record: Thioflavin T 5 μmol/L. The procedure:
Amylin is an amyloid accumulating in pancreas of type II diabetes.
(3) The amyloid suspension was dissolved in 50 mM phosphate buffer (pH 7.4) at a concentration of amylin of 15 μM.
(4) Samples in which each compound for evaluation and amyloid were dissolved in a 50 mM phosphate buffer (pH 7.4) at final concentrations shown in Table 2-1 were prepared.
(5) A sample in which 100 μL of 50 mM phosphate buffer (pH 7.4) and 50 μL of 50 mM glycin-NaOH buffer (pH 8.5) were mixed was made as a blank, and subjected to the same procedure as in (4) and used for a calculation of inhibition ratio.
(6) The microplate filled with the sample solutions was left to stand still for 30 hours. Then, fluorescence strength of each sample solution was measured (measurement conditions: excitation wavelength of 446 nm, emission wavelength of 490 nm) with microplate reader (type: SPECTRA MAX GEMINI XS, manufactured by Molecular Devices) (hereinafter, A denotes the fluorescence strength in a sample with zero (0) concentration of each compound for evaluation, and B denotes the fluorescence strength in a sample with 1.5 μmol/L or higher concentration of each compound for evaluation).
(7) Using the fluorescence strength measured above in (6), the following formula (2-1): […]
was used to determine the inhibition ratio.

The target in data set [9] is T1, amyloid (aggregated Aβ1-40). Briefly: Measurement of binding to amyloid (radiolabelled compound, glass fiber filtration). The settings on record: amyloid 2.5-1000 nmol/L, 22° C., 3 hours. The procedure:
(7) A relation between the amount of the Compound I-6 binding to amyloid and the amount of added amyloid was evaluated from the measurement results of (6). Unspecific binding was determined using a sample to which the Compound I-2 (non-RI labeled compound) was added to become 100 nM (at a final concentration) above in (4) (Example I-7).
(8) Using [^125I]-IMPY synthesized in the above Reference Example I-6, the same procedure as the above (2) to (6) were carried out to obtain control data (Comparative Example I-1).
A relation between the concentration of amyloid in the sample solution and the radioactive count on the glass fiber filter measured above in (6) is shown in FIG. 1-11. The radioactivity on the glass fiber was increased proportionally to the concentration (addition amount) of amyloid (Example I-7). […] Therefore, the radioactive count on the glass fiber is a value reflecting the amount of the compound attached to amyloid, and the slope of the graph which plotted the radioactive count relative to the concentration of amyloid is a value which can be an index representing the intensity of binding to amyloid.

For data set [10] the following is noted: International Publication No. WO03/106439; cited from earlier work.

T1 sequence (P05067 672-711 limits assumed): as the sequence (P05067 672-711) above

A word on the IC50: it is the point on the concentration scale where inhibition reaches its midpoint. A low value points to greater potency in that assay. With `FCCOc1ccc(-c2cn3cc(Br)ccc3n2)cc1` [Compound I-3, 6-bromo-2-[4′-(2″-fluoroethoxy)phenyl]imidazo[1,2-a]pyridine], the concentration for half-maximal inhibition (IC50) in data set [1] was found to be 1.8 nM.
In the case of `CN(C)c1ccc(-c2nc3ccc(I)cc3s2)cc1` [TZDM, 6-iodo-2-[4′-(N,N-dimethylamino)phenyl]benzothiazole], in data set [2], the “clearance from normal tissues” value was “insufficient in clearance from normal tissues”.
With `[18F]CCCOc1ccc(-c2cn3cc(Br)ccc3n2)cc1` [Compound I-8, 6-bromo-2-[4′-(3″-[^18F]fluoropropoxy)-phenyl]imidazo[1,2-a]pyridine], in [3], the “Radioactive distribution per unit weight in brain, After 2 min.” value was found to be 1.20 % ID/g; the “Radioactive distribution per unit weight in brain, After 5 min.” value is given as 0.75 % ID/g; the “Radioactive distribution per unit weight in brain, After 30 min.” value is listed as 0.18 % ID/g; the “Radioactive distribution per unit weight in brain, After 60 min.” value is 0.12 % ID/g. Besides, the logPoctanol value in [4] is listed as 2.0.
Turning to `FCCCOc1ccc(-c2cn3cc(I)cnc3n2)cc1` [Compound I-5, 2-[4′-(3″-fluoropropoxy)phenyl]-6-iodoimidazo[1,2-a]pyrimidine], in data set [1], the half-maximal inhibitory concentration (IC50) came out at 55.4 nM. Further, in data set [5], the “Mutagenicity, TA98, With addition of S9mix” value is given as “Negative” and the “Mutagenicity, TA98, Without addition of S9mix” value is recorded as “Negative”. Moreover, in data set [6], the “Mutagenicity, TA100, With addition of S9mix” value was “Negative” and the “Mutagenicity, TA100, Without addition of S9mix” value is given as “Negative”. In data set [7], the Ames test judgment result was “negative”.
As for `CN(C)c1ccc(-c2nc3ccc(I)cc3o2)cc1` [IBOX, 6-iodo-2-[4′-(N,N-dimethylamino)phenyl]benzoxazole], the “clearance from normal tissues” value in data set [2] was “insufficient in clearance from normal tissues”.
As to `FCCCOc1ccc(-c2cn3cc([123I])ccc3n2)cc1` [Compound I-7, 2-[4′-(3″-fluoropropoxy)phenyl]-6-[^123I]iodoimidazo[1,2-a]pyridine], in data set [3], the “Radioactive distribution per unit weight in brain, After 2 min.” value is on record as 1.10 % ID/g; the “Radioactive distribution per unit weight in brain, After 5 min.” value was found to be 0.75 % ID/g; the “Radioactive distribution per unit weight in brain, After 30 min.” value is listed as 0.12 % ID/g; the “Radioactive distribution per unit weight in brain, After 60 min.” value stood at 0.05 % ID/g. For the same compound, the “accumulation of radioactivity on intracerebral amyloid (autoradiogram)” value in data set [8] is “possesses a property of accumulating on intracerebral amyloid and a capability of imaging intracerebral amyloid”.
The compound `FCCCOc1ccc(-c2cn3cc(Br)ccc3n2)cc1` [Compound I-1, 6-bromo-2-[4′-(3″-fluoropropoxy)phenyl]imidazo[1,2-a]pyridine] registered a half-maximal inhibitory concentration (IC50) in data set [1] of 1.4 nM. For the same compound, the “Inhibition ratio (%) of binding of amyloid (amylin) to Thioflavin T” value (shortened to “Inhibition ratio (%)”) on amyloid (amylin) (compound 1.5 μmol/L) worked out at 14.5%. In addition, the “Inhibition ratio (%)” value at amyloid (amylin) (compound 15 μmol/L) is 37.0%. For the same compound, the “Inhibition ratio (%)” value at amyloid (amylin) (compound 30 μmol/L) stood at 43.7%. In [5], the “Mutagenicity, TA98, With addition of S9mix” value is “Negative” and the “Mutagenicity, TA98, Without addition of S9mix” value was “Negative”. Besides, in [6], the “Mutagenicity, TA100, With addition of S9mix” value is listed as “Negative” and the “Mutagenicity, TA100, Without addition of S9mix” value is listed as “Negative”. Further, the Ames test judgment entry in [7] is reported as “negative”.
Consider `CN(C)c1ccc(/C=C/c2ccc(I)cc2)cc1` [m-I—SB, (E)-4-dimethylamino-4′-iodostilbene], for which the “clearance from normal tissues” value in data set [2] is “insufficient in clearance from normal tissues”.
In the case of `FCCCOc1ccc(-c2cn3cc([125I])ccc3n2)cc1` [Compound I-6, 2-[4′-(3″-fluoropropoxy)phenyl]-6-[^125I]iodoimidazo[1,2-a]pyridine], in [9], the “slope of radioactive count on glass fiber relative to concentration of amyloid (index of intensity of binding to amyloid)” value is “greater than the slope for [^125I]-IMPY”.
For `CC(=C(C#N)C#N)c1ccc2cc(N(C)CCF)ccc2c1` [FDDNP, 2-(1-{6-[(2-fluoroethyl)(methyl)amino]-2-naphthyl}ethylidene)malononitrile], the reverse mutation test entry in data set [10] is on record as “positive”.
With `FCCCOc1ccc(-c2cn3cc(I)ccc3n2)cc1` [Compound I-2, 2-[4′-(3″-fluoropropoxy)phenyl]-6-iodoimidazo[1,2-a]pyridine], in [1], the concentration for half-maximal inhibition (IC50) came out at 0.9 nM. Also, the “Inhibition ratio (%)” value at amyloid (amylin) (compound 1.5 μmol/L) was determined as 28.9%. Further, on amyloid (amylin) (compound 15 μmol/L), the “Inhibition ratio (%)” value came out at 26.6%. Besides, the “Inhibition ratio (%)” value on amyloid (amylin) (compound 30 μmol/L) stood at 28.2%. For the same compound, in data set [5], the “Mutagenicity, TA98, With addition of S9mix” value is given as “Negative” and the “Mutagenicity, TA98, Without addition of S9mix” value is on record as “Negative”. In [6], the “Mutagenicity, TA100, With addition of S9mix” value is “Negative” and the “Mutagenicity, TA100, Without addition of S9mix” value is reported as “Negative”. Moreover, the Ames test judgment entry in [7] is recorded as “negative”.
